Reference: US9096524B2, “Anthelmintic agents and their use” (Intervet International B.V., priority 2009, dated 2015)
Where two headings read alike, the source gives them in different places.

System: A. galli (intestinal roundworm of chicken) larval stage 3; O. dentatum (nodular worm of swine) larval stages 3 and 4
Experiment: Activity against Ascaridia galli and Oesophagostomum dentatum larvae in vitro (minimum effective concentration)
Format: cell-based
[1] = read-out: MEC (minimum effective concentration) against one or more of the tested nematodes, in vitro, one or more of A. galli L3, O. dentatum L3, L4, threshold 1 μM
[2] = read-out: MEC (minimum effective concentration) against one or more of the tested nematodes, in vitro, one or more of A. galli L3, O. dentatum L3, L4, threshold 7 μM
[3] = read-out: MEC (minimum effective concentration) against two or more of the tested nematodes, in vitro, two or more of A. galli L3, O. dentatum L3, L4, threshold 1 μM

SMILES: O=C(CC(=O)N1CCN(c2ccc(C(F)(F)F)cc2)CC1)N1CCC(Nc2ccc([N+](=O)[O-])c(C(F)(F)F)c2)CC1 [Example 78, 1-[4-(4-nitro-3-trifluoromethyl-phenylamino)-piperidin-1-yl]-3-[4-(4-trifluoromethyl-phenyl)-piperazin-1-yl]-propane-1,3-dione]
- minimal effective concentration [1]: < 1 µM
- minimal effective concentration [2]: < 7 µM
- minimal effective concentration [3]: < 1 µM

SMILES: O=C(CCCN1CCN(c2ccc(C(F)(F)F)cc2)CC1)N1CCC(Oc2ccc([N+](=O)[O-])c(C(F)(F)F)c2)CC1 [Example 79, 1-[4-(4-nitro-3-trifluoromethyl-phenoxy)-piperidin-1-yl]-4-[4-(4-trifluoromethyl-phenyl)-piperazin-1-yl]-butan-1-one]
- minimal effective concentration [1]: < 1 µM
- minimal effective concentration [2]: < 7 µM
- minimal effective concentration [3]: < 1 µM

SMILES: O=C(CCCN1CCN(c2ccc(C(F)(F)F)cc2)CC1)N1CCC(Nc2cccc(C(F)(F)F)c2)CC1 [Example 81, 1-[4-(3-trifluoromethyl-phenylamino)-piperidin-1-yl]-4-[4-(4-trifluoromethyl-phenyl)-piperazin-1-yl]-butan-1-one]
- minimal effective concentration [1]: < 1 µM
- minimal effective concentration [2]: < 7 µM
- minimal effective concentration [3]: < 1 µM

SMILES: N#Cc1ccc(NC2CCN(C(=O)CCCN3CCN(c4ccc(C(F)(F)F)cc4)CC3)CC2)cc1 [Example 83, 4-(1-{4-[4-(4-trifluoromethyl-phenyl)-piperazin-1-yl]-butyryl}-piperidin-4-ylamino)-benzonitrile]
- minimal effective concentration [1]: < 1 µM
- minimal effective concentration [2]: < 7 µM
- minimal effective concentration [3]: < 1 µM

SMILES: O=C(CCCN1CCN(c2ccc(C(F)(F)F)cc2)CC1)N1CCC(Nc2ccc([N+](=O)[O-])nc2)CC1 [Example 95, 1-[4-(6-nitro-pyridin-3-ylamino)-piperidin-1-yl]-4-[4-(4-trifluoromethyl-phenyl)-piperazin-1-yl]-butan-1-one]
- minimal effective concentration [1]: < 1 µM
- minimal effective concentration [2]: < 7 µM
- minimal effective concentration [3]: < 1 µM

SMILES: O=C(CCCN1CCN(c2ccc(C(F)(F)F)cc2)CC1)N1CCC(Nc2ccc([N+](=O)[O-])cn2)CC1 [Example 98, 1-[4-(5-nitro-pyridin-2-ylamino)-piperidin-1-yl]-4-[4-(4-trifluoromethyl-phenyl)-piperazin-1-yl]-butan-1-one]
- minimal effective concentration [1]: < 1 µM
- minimal effective concentration [2]: < 7 µM
- minimal effective concentration [3]: < 1 µM

SMILES: Cc1nc(NC2CCN(C(=O)CCCN3CCN(c4ccc(C(F)(F)F)cc4)CC3)CC2)ccc1[N+](=O)[O-] [Example 101, 1-[4-(6-methyl-5-nitro-pyridin-2-ylamino)-piperidin-1-yl]-4-[4-(4-trifluoromethyl-phenyl)-piperazin-1-yl]-butan-1-one]
- minimal effective concentration [1]: < 1 µM
- minimal effective concentration [2]: < 7 µM
- minimal effective concentration [3]: < 1 µM

SMILES: N#Cc1ccc(NC2CCN(C(=O)CCCN3CCN(c4ccc(C(F)(F)F)cc4)CC3)CC2)cc1Cl [Example 105, 2-chloro-4-(1-{4-[4-(4-trifluoromethyl-phenyl)-piperazin-1-yl]-butyryl}-piperidin-4-ylamino)-benzonitrile]
- minimal effective concentration [1]: < 1 µM
- minimal effective concentration [2]: < 7 µM
- minimal effective concentration [3]: < 1 µM

SMILES: CC(C)(C)c1ccc(N2CC3CN(CCC(=O)N4CCC(Nc5ccc([N+](=O)[O-])c(C(F)(F)F)c5)CC4)CC3C2)cc1 (stereo not drawn) [Example 128, 3-[5-(4-tert-butyl-phenyl)-hexahydro-pyrrolo[3,4-c]pyrrol-2-yl]-1-[4-(4-nitro-3-trifluoromethyl-phenylamino)-piperidin-1-yl]-propan-1-one]
- minimal effective concentration [1]: < 1 µM
- minimal effective concentration [2]: < 7 µM
- minimal effective concentration [3]: < 1 µM

SMILES: CC(CN1CCN(c2ccc(C(C)(C)C)cc2)CC1)C(=O)N1CCC(Nc2ccc([N+](=O)[O-])c(C(F)(F)F)c2)CC1 (stereo not drawn) [Example 130, 3-[4-(4-tert-butyl-phenyl)-piperazin-1-yl]-2-methyl-1-[4-(4-nitro-3-trifluoromethyl-phenylamino)-piperidin-1-yl]-propan-1-one]
- minimal effective concentration [1]: < 1 µM
- minimal effective concentration [2]: < 7 µM
- minimal effective concentration [3]: < 1 µM

SMILES: CC(C)(C)c1ccc(N2CCC(CCCC(=O)N3CCC(Nc4ccc([N+](=O)[O-])c(C(F)(F)F)c4)CC3)CC2)cc1 [Example 137, 4-[1-(4-tert-butyl-phenyl)-piperidin-4-yl]-1-[4-(4-nitro-3-trifluoromethyl-phenylamino)-piperidin-1-yl]-butan-1-one]
- minimal effective concentration [1]: < 1 µM
- minimal effective concentration [2]: < 7 µM
- minimal effective concentration [3]: < 1 µM

SMILES: O=C(CCC1CCN(c2ccc(C(F)(F)F)cc2)CC1)N1CCC(Nc2ccc([N+](=O)[O-])c(C(F)(F)F)c2)CC1 [Example 141, 1-[4-(4-nitro-3-trifluoromethyl-phenylamino)-piperidin-1-yl]-3-[1-(4-trifluoromethyl-phenyl)-piperidin-4-yl]-propan-1-one]
- minimal effective concentration [1]: < 1 µM
- minimal effective concentration [2]: < 7 µM
- minimal effective concentration [3]: < 1 µM

SMILES: O=C(CCC1CCN(c2ccc(Cl)cc2)CC1)N1CCC(Nc2ccc([N+](=O)[O-])c(C(F)(F)F)c2)CC1 [Example 144, 3-[1-(4-chloro-phenyl)-piperidin-4-yl]-1-[4-(4-nitro-3-trifluoromethyl-phenylamino)-piperidin-1-yl]-propan-1-one]
- minimal effective concentration [1]: < 1 µM
- minimal effective concentration [2]: < 7 µM
- minimal effective concentration [3]: < 1 µM

SMILES: CC(C)(C)c1ccc(N2CCC(CCC(=O)N3CCC(Nc4ccc([N+](=O)[O-])c(C(F)(F)F)c4)CC3)CC2)cc1 [Example 147, 3-[1-(4-tert-butyl-phenyl)-piperidin-4-yl]-1-[4-(4-nitro-3-trifluoromethyl-phenylamino)-piperidin-1-yl]-propan-1-one]
- minimal effective concentration [1]: < 1 µM
- minimal effective concentration [2]: < 7 µM
- minimal effective concentration [3]: < 1 µM

SMILES: O=C(CCCN1CCN(c2ccc(C(F)(F)F)nc2)CC1)N1CCC(Nc2ccc([N+](=O)[O-])c(C(F)(F)F)c2)CC1 [Example 149, 1-[4-(4-nitro-3-trifluoromethyl-phenylamino)-piperidin-1-yl]-4-[4-(6-trifluoromethyl-pyridin-3-yl)-piperazin-1-yl]-butan-1-one]
- minimal effective concentration [1]: < 1 µM
- minimal effective concentration [2]: < 7 µM
- minimal effective concentration [3]: < 1 µM

SMILES: O=C(CCCN1CCN(c2nnc(C(F)(F)F)s2)CC1)N1CCC(Nc2ccc([N+](=O)[O-])c(C(F)(F)F)c2)CC1 [Example 153, 1-[4-(4-nitro-3-trifluoromethyl-phenylamino)-piperidin-1-yl]-4-[4-(5-trifluoromethyl-1,3,4-thiadiazol-2-yl)-piperazin-1-yl]-butan-1-one]
- minimal effective concentration [1]: < 1 µM
- minimal effective concentration [2]: < 7 µM
- minimal effective concentration [3]: < 1 µM
